System: adult participants hospitalized for severe COVID-19
Experiment: Phase 1b severe COVID-19 study: adverse events and deaths
Assay type: in vivo, human
Excerpt: Safety evaluation was based on adverse events (Aes) including serious adverse events (SAEs) and adverse events of special interest (AESIs) (i.e., pregnancy, symptomatic overdose with IMP. Alanine aminotransferase [ALT] increase, and anemia), and treatment-emergent adverse events (TEAEs) leading to treatment discontinuation.
The primary focus of AE reporting was on treatment emergent adverse events (TEAEs). Treatment emergent adverse events were Aes that were not present at baseline or represented the exacerbation of a pre-existing condition during the on-treatment period (treatment-emergent period), defined as the time from the first administration of the IMP up to and including the day of last dose of study drug plus 5 days.
All adverse events were coded to a “preferred term (PT)”, “high-level term (HLT)”, “high-level group term (HLGT)”, and associated primary SOC using Medical Dictionary for Regulatory Activities (MedDRA) version 23.1.
The number and cumulative incidence rate of deaths [%] during the on-study period were computed by treatment group: number of deaths divided by the number of participants. Kaplan-Meier plot for time to death was presented by treatment group.

[1] = 600 mg (N = 47), Safety population

## CN1C(=O)[C@@H](NC(=O)c2nnc(Cc3ccccc3)[nH]2)COc2cccnc21 [RIPK1 Inhibitor, (S)-5-benzyl-N-(5-methyl-4-oxo-2,3,4,5-tetrahydropyrido[3,2-b][1,4]oxazepin-3-yl)-4H-1,2,4-triazole-3-carboxamide]
600 mg
  intensity of the majority of the TEAEs: grade 2
  participants with PCSAs in hemoglobin and hematocrits considered as TEAEs of anemia: 1 participants
[1]
  Participants with TEAE(s) (SAE): Any class: 6 (12.8) n (%)
  Participants with TEAE(s) (SAE): PT Bacterial infection: 1 (2.1) n (%)
  Participants with TEAE(s) (SAE): PT Cardiac arrest: 0 n (%)
  Participants with TEAE(s) (SAE): PT Condition aggravated: 2 (4.3) n (%)
  Participants with TEAE(s) (SAE): PT Peripheral artery thrombosis: 1 (2.1) n (%)
  Participants with TEAE(s) (SAE): PT Pneumonia bacterial: 1 (2.1) n (%)
  Participants with TEAE(s) (SAE): PT Pseudomonas infection: 1 (2.1) n (%)
  Participants with TEAE(s) (SAE): PT Pulmonary embolism: 1 (2.1) n (%)
  Participants with TEAE(s) (SAE): PT Respiratory failure: 0 n (%)
  Participants with TEAE(s) (SAE): SOC CARDIAC DISORDERS: 0 n (%)
  Participants with TEAE(s) (SAE): SOC GENERAL DISORDERS AND ADMINISTRATION SITE CONDITIONS: 2 (4.3) n (%)
  Participants with TEAE(s) (SAE): SOC INFECTIONS AND INFESTATIONS: 3 (6.4) n (%)
  Participants with TEAE(s) (SAE): SOC RESPIRATORY, THORACIC AND M[…]: 1 (2.1) n (%)
  Participants with TEAE(s) (SAE): SOC VASCULAR DISORDERS: 1 (2.1) n (%)
  TEAE, Any class: number of participants: 24
  TEAE, Any class: percentage of participants: (51.1) %
  TEAE, PT Alanine aminotransferase increased: number of participants: 6
  TEAE, PT Alanine aminotransferase increased: percentage of participants: (12.8) %
  TEAE, PT Anaemia: number of participants: 1
  TEAE, PT Anaemia: percentage of participants: (2.1) %
  TEAE, PT Anxiety disorder: number of participants: 1
  TEAE, PT Anxiety disorder: percentage of participants: (2.1) %
  TEAE, PT Arterial injury: number of participants: 1
  TEAE, PT Arterial injury: percentage of participants: (2.1) %
  TEAE, PT Aspartate aminotransferase increased: number of participants: 1
  TEAE, PT Aspartate aminotransferase increased: percentage of participants: (2.1) %
  TEAE, PT Back pain: number of participants: 1
  TEAE, PT Back pain: percentage of participants: (2.1) %
  TEAE, PT Bacterial infection: number of participants: 1
  TEAE, PT Bacterial infection: percentage of participants: (2.1) %
  TEAE, PT Blood pressure increased: number of participants: 0
  TEAE, PT Cardiac arrest: number of participants: 0
  TEAE, PT Cerebral ischaemia: number of participants: 0
  TEAE, PT Chest discomfort: number of participants: 1
  TEAE, PT Chest discomfort: percentage of participants: (2.1) %
  TEAE, PT Cholelithiasis: number of participants: 0
  TEAE, PT Constipation: number of participants: 1
  TEAE, PT Constipation: percentage of participants: (2.1) %
  TEAE, PT Dehydration: number of participants: 1
  TEAE, PT Dehydration: percentage of participants: (2.1) %
  TEAE, PT Diarrhoea: number of participants: 4
  TEAE, PT Diarrhoea: percentage of participants: (8.5) %
  TEAE, PT Drug hypersensitivity: number of participants: 1
  TEAE, PT Drug hypersensitivity: percentage of participants: (2.1) %
  TEAE, PT Dyspepsia: number of participants: 0
  TEAE, PT Dyspnoea: number of participants: 1
  TEAE, PT Dyspnoea: percentage of participants: (2.1) %
  TEAE, PT Emphysema: number of participants: 1
  TEAE, PT Emphysema: percentage of participants: (2.1) %
  TEAE, PT Encephalopathy: number of participants: 0
  TEAE, PT Fatigue: number of participants: 1
  TEAE, PT Fatigue: percentage of participants: (2.1) %
  TEAE, PT Flatulence: number of participants: 1
  TEAE, PT Flatulence: percentage of participants: (2.1) %
  TEAE, PT Furuncle: number of participants: 0
  TEAE, PT Gastritis: number of participants: 0
  TEAE, PT Gastrooesophageal sphincter insufficiency: number of participants: 0
  TEAE, PT Hyperglycaemia: number of participants: 1
  TEAE, PT Hyperglycaemia: percentage of participants: (2.1) %
  TEAE, PT Hypertension: number of participants: 1
  TEAE, PT Hypertension: percentage of participants: (2.1) %
  TEAE, PT Hypoglycaemia: number of participants: 1
  TEAE, PT Hypoglycaemia: percentage of participants: (2.1) %
  TEAE, PT Hypophosphataemia: number of participants: 1
  TEAE, PT Hypophosphataemia: percentage of participants: (2.1) %
  TEAE, PT Metabolic acidosis: number of participants: 0
  TEAE, PT Nausea: number of participants: 1
  TEAE, PT Nausea: percentage of participants: (2.1) %
  TEAE, PT Non-cardiac chest pain: number of participants: 1
  TEAE, PT Non-cardiac chest pain: percentage of participants: (2.1) %
  TEAE, PT Noninfective bronchitis: number of participants: 0
  TEAE, PT Oesophageal ulcer: number of participants: 0
  TEAE, PT Oesophagitis: number of participants: 0
  TEAE, PT Oropharyngeal pain: number of participants: 1
  TEAE, PT Oropharyngeal pain: percentage of participants: (2.1) %
  TEAE, PT Ovarian cyst: number of participants: 0
  TEAE, PT Peripheral artery thrombosis: number of participants: 1
  TEAE, PT Peripheral artery thrombosis: percentage of participants: (2.1) %
  TEAE, PT Pleural effusion: number of participants: 0
  TEAE, PT Pneumomediastinum: number of participants: 0
  TEAE, PT Pneumonia bacterial: number of participants: 1
  TEAE, PT Pneumonia bacterial: percentage of participants: (2.1) %
  TEAE, PT Pneumonia: number of participants: 0
  TEAE, PT Pneumoperitoneum: number of participants: 0
  TEAE, PT Pneumothorax: number of participants: 0
  TEAE, PT Procedural pneumothorax: number of participants: 0
  TEAE, PT Pseudomembranous colitis: number of participants: 1
  TEAE, PT Pseudomembranous colitis: percentage of participants: (2.1) %
  TEAE, PT Pseudomonas infection: number of participants: 1
  TEAE, PT Pseudomonas infection: percentage of participants: (2.1) %
  TEAE, PT Psychomotor hyperactivity: number of participants: 0
  TEAE, PT Pulmonary embolism: number of participants: 1

— patent US20230233576A1, “ECLITASERTIB FOR USE IN TREATING CONDITIONS INVOLVING SYSTEMIC HYPERINFLAMMATORY RESPONSE” (priority 2020, published 2023)
